Target: T1, hormone sensitive lipase (Homo sapiens, UniProt Q05469)
T1 construct: made in house
T1 sequence (Q05469 1-1076): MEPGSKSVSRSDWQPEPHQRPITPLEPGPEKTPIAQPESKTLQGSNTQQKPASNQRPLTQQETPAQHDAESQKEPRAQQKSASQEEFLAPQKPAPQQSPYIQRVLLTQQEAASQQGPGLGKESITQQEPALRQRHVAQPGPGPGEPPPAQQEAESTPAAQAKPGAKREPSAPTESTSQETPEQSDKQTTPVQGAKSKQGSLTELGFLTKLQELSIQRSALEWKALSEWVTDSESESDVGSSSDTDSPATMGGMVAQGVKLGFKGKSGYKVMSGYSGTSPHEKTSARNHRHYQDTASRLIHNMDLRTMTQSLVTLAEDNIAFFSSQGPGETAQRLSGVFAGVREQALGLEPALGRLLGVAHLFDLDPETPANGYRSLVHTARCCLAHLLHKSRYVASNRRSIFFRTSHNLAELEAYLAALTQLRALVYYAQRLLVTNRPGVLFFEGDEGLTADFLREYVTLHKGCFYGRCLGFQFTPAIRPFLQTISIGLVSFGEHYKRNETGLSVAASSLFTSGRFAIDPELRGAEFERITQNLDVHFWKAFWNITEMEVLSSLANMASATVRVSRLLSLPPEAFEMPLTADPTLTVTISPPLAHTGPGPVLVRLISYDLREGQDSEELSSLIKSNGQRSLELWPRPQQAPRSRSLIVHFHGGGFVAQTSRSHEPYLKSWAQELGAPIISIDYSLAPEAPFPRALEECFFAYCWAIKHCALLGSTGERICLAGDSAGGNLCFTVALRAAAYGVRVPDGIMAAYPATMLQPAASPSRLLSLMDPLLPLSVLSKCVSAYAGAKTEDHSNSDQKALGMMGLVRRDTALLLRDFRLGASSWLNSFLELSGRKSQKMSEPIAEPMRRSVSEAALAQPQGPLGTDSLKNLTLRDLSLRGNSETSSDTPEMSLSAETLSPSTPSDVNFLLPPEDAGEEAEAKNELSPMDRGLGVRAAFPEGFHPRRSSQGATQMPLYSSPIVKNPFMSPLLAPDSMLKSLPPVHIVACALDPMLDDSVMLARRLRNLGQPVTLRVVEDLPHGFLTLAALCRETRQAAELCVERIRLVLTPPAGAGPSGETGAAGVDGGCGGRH
Test: Assay 3190.1: percent inhibition of hormone sensitive lipase by compound at 10 μM (fluorochrome-labeled triacylglyceride emulsion, HSL_FL)
Type: biochemical
Conditions: 10 μM sample concentration; % activity relative to non-inhibited sample (no compound); 30 min preincubation at 25° C., 120 min incubation at 37° C.
Source text: The Hormone-sensitive lipase was provided by Dr. Cecilia Holm, from Lund University Sweden or produced and purified by Novo Nordisk (NN) using the reagents and protocols used by Dr. Holm. The substrates used are: ^3H-labeled triolein (TO) from Amersham, Buckinghamshire, U.K. cat No. TRA191; 5-20 Ci/mmol dissolved in toluene, triolein (Sigma, Cat. No. T-1740), fluorochrome-labeled triacylglyceride (cis-octadec-9-enoic acid 2-[12-(7-nitrobenzo[1,2,5]oxadiazol-4-ylamino)dodecanoyloxy]-1-cis-octadec-9-enoyloxymethyl-ethyl ester) prepared by Novo Nordisk (NN) by conventional methods, and 1,3-(di[^3H]-stearin), 2-(PEG-Biotin)glycerol prepared in collaboration with Amersham Pharmacia Biotech, UK and described in WO 01/073442. Phosphatidyl choline (PC) and phosphatidyl inositol (PI) are from Sigma (St Luis Mo. cat. Nos. P-3556 and P-5954 respectively). All other reagents are of commercial grade and obtained from various commercial sources.
3190.1: Assay for determination of percent inhibition of hormone sensitive lipase by compound at 10 μM sample concentration.
A lipid emulsion with fluorochrome-labeled triacylglyceride and phospholipid is used as substrate with a standard concentration of highly purified HSL (12 μg/mL initial concentration corresponding to 600 ng/mL final concentration). BSA is added as product acceptor receptor. The transfer of the fluorochrome from the lipid phase to the water (BSA) phase changes the fluorescent properties of the fluorochrome. The changes can be monitored on a fluorimeter with an excitation wavelength of 450 nm and an emission wavelength of 545 nm.
Compound and HSL (20 μL compound, 10 μL enzyme and 70 μL PED-BSA buffer) is pre-incubated for 30 min at 25° C. before addition of substrate (100 μL). Amount of formed product is measured after 120 min incubation at 37° C.
Results are given as percent activity relative to a non-inhibited sample (no compound).

Compound	Test 3190.1 HSL_FL % ACTIVITY [%]
4-(4-Carboxymethyl-phenoxy)-piperidine-1-carboxylic acid 4-(2-phenoxy-ethyl)-phenyl ester [Example 92]	3
4-(4-Carboxymethyl-phenoxy)-piperidine-1-carboxylic acid 4-[2-(1-methyl-1H-tetrazol-5-yloxy)-ethyl]-phenyl ester [Example 94]	6
CCOC(=O)CCc1ccc(OC2CCN(C(=O)Oc3ccc(Oc4ccc(C(F)(F)F)cn4)cc3)CC2)cc1 [Example 31, -[4-(2-Ethoxycarbonyl-ethyl)-phenoxy]-piperidine-1-carboxylic acid 4-(5-trifluoromethyl-pyridin-2-yloxy)-phenyl ester]	0

Same assay, conditions: 10 μM sample concentration; % activity relative to non-inhibited sample (no compound); 30 min preincubation at 25° C., 120 min incubation at 37° C.; read-out: Test 3190.1 HSL_FL % ACTIVITY

activity at 10 µM [%]	Compound
5	O=C(Oc1ccc(Oc2ccc(C(F)(F)F)cn2)cc1)N1CCC(Sc2nccn2-c2cccnc2)CC1 [Example 3, 4-(1-Pyridin-3-yl-1H-imidazol-2-ylsulfanyl)-piperidine-1-carboxylic acid 4-(5-trifluoromethyl-pyridin-2-yloxy)-phenyl ester]
1	O=C(Oc1ccc(Oc2ccc(C(F)(F)F)cn2)cc1)N1CCC(Oc2cccnc2)CC1 [Example 10, 4-(Pyridin-3-yloxy)-piperidine-1-carboxylic acid 4-(5-trifluoromethyl-pyridin-2-yloxy)-phenyl ester]
11	O=C(Oc1ccc(Oc2ccc(C(F)(F)F)cn2)cc1)N1CCC(On2nccc2Sc2ccccc2)CC1 [Example 12, 4-(5-Phenylsulfanyl-pyrazol-1-yloxy)-piperidine-1-carboxylic acid 4-(5-trifluoromethyl-pyridin-2-yloxy)-phenyl ester]
14	O=C(O)c1ccc(-c2ccc(OC3CCN(C(=O)Oc4ccc(Oc5ccc(C(F)(F)F)cn5)cc4)CC3)cc2)cc1 [Example 35, 4-(4′-Carboxy-biphenyl-4-yloxy)-piperidine-1-carboxylic acid 4-(5-trifluoromethyl-pyridin-2-yloxy)-phenyl ester]
8	O=C(O)c1coc(-c2ccc(OC3CCN(C(=O)Oc4ccc(Oc5ccc(C(F)(F)F)cn5)cc4)CC3)cc2)n1 [Example 36, 4-[4-(4-Carboxy-oxazol-2-yl)-phenoxy]-piperidine-1-carboxylic acid 4-(5-trifluoromethyl-pyridin-2-yloxy)-phenyl ester]
1	O=C(O)CCc1ccc(OC2CCN(C(=O)Oc3ccc(Oc4ccc(C(F)(F)F)cn4)cc3)CC2)cc1 [Example 37, 4-[4-(2-Carboxy-ethyl)-phenoxy]-piperidine-1-carboxylic acid 4-(5-trifluoromethyl-pyridin-2-yloxy)-phenyl ester]
5	O=C(O)c1ccc(OC2CCN(C(=O)Oc3ccc(Oc4ccc(C(F)(F)F)cn4)cc3)CC2)cc1 [Example 39, 4-(4-Carboxy-phenoxy)-piperidine-1-carboxylic acid 4-(5-trifluoromethyl-pyridin-2-yloxy)-phenyl ester]
5	O=C(O)Cc1ccc(OCC2CCN(C(=O)Oc3ccc(Oc4ccc(C(F)(F)F)cn4)cc3)CC2)cc1 [Example 44, 4-(4-Carboxymethyl-phenoxymethyl)-piperidine-1-carboxylic acid 4-(5-trifluoromethyl-pyridin-2-yloxy)-phenyl ester]

Compound	activity at 10 µM [%]
CN(CCC1CCN(C(=O)Oc2ccc(Oc3ccc(C(F)(F)F)cn3)cc2)CC1)Cc1ccccc1 [Example 1, 4-[2-(Benzyl-methyl-amino)-ethyl]-piperidine-1-carboxylic acid 4-(5-trifluoromethyl-pyridin-2-yloxy)-phenyl ester]	1
O=C(Oc1ccc(Oc2ccc(C(F)(F)F)cn2)cc1)N1CCC(Oc2ccc(N3CCN(C4CCCC4)CC3)cc2)CC1 [Example 22, 4-[4-(4-Cyclopentyl-piperazin-1-yl)-phenoxy]-piperidine-1-carboxylic acid 4-(5-trifluoromethyl-pyridin-2-yloxy)-phenyl ester]	4

Reference: patent US20060160851A1, “Substituted piperidine carbamates” (Novo Nordisk A/S, priority 2003, published 2006)
